Measured values from patent US20040123344A1, “Novel gene encoding an f-box protein which regulates leaf longevity in arabidopsis thaliana and mutant gene thereof” (priority 2000, published 2004).

T1: 35S-labeled ORE9 (50-693), in vitro translated (Arabidopsis thaliana, UniProt Q9SIM9 50-693)
T1 sequence: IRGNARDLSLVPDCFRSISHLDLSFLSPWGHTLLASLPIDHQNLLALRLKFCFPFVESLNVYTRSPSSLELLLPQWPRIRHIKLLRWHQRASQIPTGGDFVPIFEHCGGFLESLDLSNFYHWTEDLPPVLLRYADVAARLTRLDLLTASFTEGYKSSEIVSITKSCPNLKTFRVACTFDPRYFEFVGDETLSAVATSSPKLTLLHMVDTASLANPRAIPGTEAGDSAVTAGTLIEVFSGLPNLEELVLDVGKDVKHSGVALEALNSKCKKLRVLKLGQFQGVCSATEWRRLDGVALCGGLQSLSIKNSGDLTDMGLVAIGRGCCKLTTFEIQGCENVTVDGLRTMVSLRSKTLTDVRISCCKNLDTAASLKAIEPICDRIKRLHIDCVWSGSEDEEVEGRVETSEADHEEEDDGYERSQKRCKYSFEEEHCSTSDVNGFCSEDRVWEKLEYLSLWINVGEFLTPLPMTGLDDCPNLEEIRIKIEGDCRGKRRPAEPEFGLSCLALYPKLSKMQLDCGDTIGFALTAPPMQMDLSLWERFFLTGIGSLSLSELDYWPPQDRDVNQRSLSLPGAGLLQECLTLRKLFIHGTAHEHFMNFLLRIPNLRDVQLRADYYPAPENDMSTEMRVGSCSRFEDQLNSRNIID

B1: GAL4-AD fusion of ASK2(1-172), expressed from pGAD424-ASK2(1-172) [4] (other, Arabidopsis, UniProt Q9FHW7 1-171, looked up, not shown: large carriers)
chain: MSTVRKITLKSSDGENFEIDEAVALESQTIKHMIEDDCTDNGIPLPNVTSKILSKVIEYCKRHVEAAEKSETTADAAAATTTTTVASGSSDEDLKTWDSEFIKVDQGTLFDLILAANYLNIKGLLDLTCQTVADMIKGKTPEEIRKTFNIKNDFTPEEEEEVRRENQWAFE
notes: range 1-172; Yeast two-hybrid prey; also called Arabidopsis SKP1 homolog 2
B2: GAL4-AD fusion of ASK1(1-160), expressed from pGAD424-ASK1(1-160) [3] (other, Arabidopsis, UniProt Q39255 1-160, looked up, not shown: large carriers)
chain: MSAKKIVLKSSDGESFEVEEAVALESQTIAHMVEDDCVDNGVPLPNVTSKILAKVIEYCKRHVEAAASKAEAVEGAATSDDDLKAWDADFMKIDQATLFELILAANYLNIKNLLDLTCQTVADMIKGKTPEEIRTTFNIKNDFTPEEEEEVRRENQWAFE
notes: range 1-160; also called Arabidopsis SKP1 homolog 1; pGAD-ASK1(1-160)[3]
B3: GST-ASK1 fusion protein (other, Arabidopsis, UniProt Q39255 1-160, looked up, not shown: a dimerising Fc or GST)
chain: B2 chain
notes: also called GSK-ASK1

Tests used:
ore9 mutant leaves = type: in vivo, Arabidopsis thaliana; settings: detached leaves at 12 DAE, 50 μM ABA or 50 μM MeJA in MES buffer pH 5.8, or 4.5 μM ethylene gas, three days at 22° C., continuous light
Protocol: (§1) In order to measure photosynthetic activities, a method of Oh S. A. et al., (Oh S. A. et al., Plant Mol. Biol. 30: 939, 1996) was used. First, the respective leaves were dark-treated for 15 minutes and measured for fluorescence of chlorophylls using a plant efficiency analyzer. The photosynthetic activity was expressed as photochemical efficiency of photosystemII (PSII) using a fluorescent property of chlorophylls. The photochemical efficiency was expressed as the ratio of maximum variable fluorescence (Fv) to maximum value of fluorescence (Fm) (Fv/Fm). As the ratio is increased, the photosynthesis efficiency improves.
(§2) Although senescence of leaves is known as a genetic programmed process, the initiation and progress of senescence can be changed by phytohormones, such as abscisic acid (ABA), methyl jasmonate (MeJA) and ethylene, that are plant growth inhibitory substances (Hensel et al., Plant Cell 5:553, 1993; Weidhase et al., Physiol. Plant 69:161, 1987; and Zeevaart et al, Annu. Rev. Plant Physiol. Plant Mol. Biol. 39:439, 1998). Thus, in this experiment, a change in leaf longevity of the ore9 mutant according to treatment with phytohormones was examined by measuring changes in photosynthetic activity and chlorophyll content. Detached leaves were floated in 3 mM 2-[N-morpholino]-ethanesulfonic acid (MES) buffer, pH 5.8, containing 50 μM ABA or 50 μM MeJA, while continuously being exposed to light. Treatment with ethylene was carried out by cultivation in a glass box containing 4.5 μM ethylene gas. The treatments with phytohormones as described above were carried out for three days at 22° C. with continuous exposure to light. At this time, 12 independent leaves at 12 DAE were used as samples, and the chlorophyll content and the photosynthetic activity were measured in the same manner as in Example 2.

[1] = system: wild type Arabidopsis thaliana leaves; assay: Phytohormone treatment of detached leaves, photosynthetic activity (Fv/Fm of PSII); type: in vivo; settings: detached leaves at 12 DAE, 50 μM ABA or 50 μM MeJA in MES buffer pH 5.8, or 4.5 μM ethylene gas, three days at 22° C., continuous light
Protocol: as §1, §2

[2] = target: T2, GAL4-BD fusion of ORE9 (1-49), expressed from pGBT9-ORE9 (1-49) [1] (Arabidopsis thaliana); assay: yeast two-hybrid assay, combination [1+4]
T2 construct: Yeast two-hybrid bait expressed in yeast HF7c; also called fragment containing only the F-box region of ORE9; pGBT-ORE9(1-49)[1]

[3] = target: T3, GAL4-BD fusion of ORE9 (50-693), expressed from pGBT9-ORE9 (50-693) [2] (Arabidopsis thaliana); assay: yeast two-hybrid assay
T3 construct: Yeast two-hybrid bait expressed in yeast HF7c; also called ORE9 derivative from which the F-box region was removed

[4] = target: T1, 35S-labeled ORE9 (50-693), in vitro …; assay: in vitro GST pull-down of 35S-labeled protein
From the text: In order to examine that ORE9 protein or derivatives thereof directly bind with ASK1, a GST-ASK1 fusion protein and a ³⁵S-labeled ORE9 protein produced by in vitro translation were subjected to in vitro binding assay. To obtain a glutathione S-transferase (GST) protein and a GST-ASK1 fusion protein, a vector pGEX (APBiotech, Co.) and a vector pGEX-ASK1 were constructed, which express the above proteins, respectively. Artificial sequences represented by SEQ ID NO: 14 and SEQ ID NO: 15 were used as PCR primers to amplify a gene encoding the ASK1 fragment. The resulting PCR product was digested with EcoRI and NcoI restriction enzymes, and inserted into the restriction enzyme sites of the pGEX vector. Escherichia coli BL21(DE3) pLysS was transformed with the resulting two vectors, and GST and GST-ASK1 fusion proteins were expressed. The GST and GST-ASK1 fusion proteins were purified by chromatography with glutathione-Sepharose 4B beads. The purified proteins was subjected to electrophoresis with SDS-polyacryamide gets, dyed with Coomassie blue, and measured for their amount. […]
The proteins were quantitatively analyzed with SDS-PAGE and BAS radioanalytic imaging system (Japan). […]

Molecule	photosynthetic ability maintained after treatment (ore9 mutant leaves)	photosynthetic activity after treatment [1]	further results
C=C [ethylene]	82%	54%	
CC/C=C\CC1C(=O)CCC1CC(=O)OC (stereo not drawn) [MeJA, methyl jasmonate]	70%	38%	
CC1=CC(=O)CC(C)(C)[C@@]1(O)/C=C/C(C)=C\C(=O)O [ABA, abscisic acid]	93%	65%	
B1			binding result [2]: no binding
B2			binding result [3]: no binding
B3			binding result [4]: no binding
